In paper PMC7567501 (Journal of Enzyme Inhibition and Medicinal Chemistry, 2019):

Legend:
[1] = Cu(II) complexation, UV-vis spectrophotometric titration; format: physicochemical; settings: 25% w/w DMSO/water
Description: (§1) It has been largely accepted that chelators interfere both in metal-induced Aβ aggregation/neurotoxicity and on metal homeostasis of AD brains. Among the hybrids with BF hydroxyl substituent, compound 21 was chosen as a representative model to analyse the concomitant chelating capacity towards the redox-active (Fe(III), Cu(II)) and Aβ-binding (Cu(II)) metal ions. Due to solubility reasons, these studies were performed in a mixed 25% (w/w) DMSO/water medium, In fact, DMSO was chosen because it is a widely used and well tolerated solvent in biological and cellular studies, the amounts of ligand (<7 µM) and DMSO (<1%) employed in culture media being quite low with concomitant no alterations observed in cells.
(§2) The chelating ability of compound 21 towards the two metal ions under study (Fe(III) and Cu(II)) was evaluated on the basis of the global formation constants of the complexes, obtained by treatment of the UV-vis spectrophotometric data (see Table 1).
(§3) For the metal complexation studies, the aqueous iron (FeCl3, 0.0177 M) and copper (CuCl2, 0.015 M) stock solutions were prepared from 1000 ppm standards (Titrisol) and their metal content was evaluated by atomic absorption. To prevent hydrolysis, the iron stock solution was prepared in excess of acid chloride and its exact concentration in HCl determined by the usual standard-addition method using 0.1 M HCl (Titrisol). The 0.1 M HCl solution, used in spectrophotometric titrations, was prepared from a Titrisol ampoule while the titrant was from carbonate free commercial concentrate (Titrisol, KOH 0.1 M ampoules). The KOH solution was standardised by titration with a solution of potassium hydrogen phthalate and was discarded whenever the percentage of carbonate, determined by Gran’s method, was greater than 0.5% of the total amount of base.
(§4) The electronic spectra and the AChE inhibition assays were performed in a 1-cm path length quartz cell with a Perkin Elmer Lambda 35 spectrophotometer equipped with a temperature programmer PTP1 + 1 Peltier System (T = 25.0 ± 0.1 °C). The enzyme AChE 500 U, extracted from Electrophorus electricus (electric eel), was purchased from Sigma-Aldrich.

[2] = Fe(III) complexation, UV-vis spectrophotometric titration; format: physicochemical; settings: 25% w/w DMSO/water
Description: as §1, §2, §3, §4

Aβ1-42 = target: T1, Aβ1-42 (Homo sapiens, UniProt P05067); assay: TEM imaging of Aβ aggregation inhibition; settings: compound 50 μM, 37 °C, 24 h, pH 6.6
T1 construct: Amyloid β-peptide (1–42), Aβ1-42, was purchased from GeneCust; purchased GeneCust
Description: Nevertheless, since quantitative analysis based on fluorescence of copper(II) containing solutions may result in somehow erroneous conclusions due to some potential emission quenching by this paramagnetic ion, a fluorescence-independent study by transmission electron microscopy (TEM) was also performed for compound 21. […] Overall, TEM confirms the role of the ligand in the inhibition of Aβ aggregation.
Figure 6. TEM images of Aβ aggregation inhibition performed with samples incubated (37 °C) for 24 h. Experimental conditions: [Aβ1–42] = [CuCl2] = 25 μM; [21] = 50 μM; pH = 6.6.
For the study of the β-amyloid (Aβ) aggregation, the ThT fluorescence assay was performed using a Varian Cary Eclipse fluorimeter at the following wavelengths: excitation (446 nm) and emission (485 nm). Amyloid β-peptide (1–42), Aβ1-42, was purchased from GeneCust as a lyophilised powder stored at −20 °C. TEM assays were performed with a Hitachi H8100 transmission electron microscope with a LaB6 filament (200 kV, 10000–20000 × magnification) at MicroLab/IST.
The Transmission Electron Microscopy (TEM) is a high resolution technique used to study biological or inorganic samples at 2–3 nm level, through black and white high-quality images. The compound 21 was selected among those with better anti-Aβ aggregation assay. […]

[3] = pH 7.4, CL/CM = 10, CM = 10^−6 M

T1 sequence (P05067 672-713 limits assumed): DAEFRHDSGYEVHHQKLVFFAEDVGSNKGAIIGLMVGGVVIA

O=C(NCCCNc1c2c(nc3ccccc13)CCCC2)c1cc2cccc(O)c2o1 [Compound 21, 7-Hydroxy-N-(3-((1,2,3,4-tetrahydroacridin-9-yl)amino)propyl)benzofuran-2-carboxamide]
log βCumHhLl, species (1–11) ([1]; T = 25.0 °C, I = 0.1 M KCl): 2.25(3) | log βCumHhLl, species (101) ([1]; T = 25.0 °C, I = 0.1 M KCl): 10.87(6) | log βCumHhLl, species (102) ([1]; T = 25.0 °C, I = 0.1 M KCl): 20.68(8) | log βCumHhLl, species (111) ([1]; T = 25.0 °C, I = 0.1 M KCl): 19.02(2) | pM (pCu) = −log[M] [1, 3]: 11.9 | log βFemHhLl, species (1–22) ([2]; T = 25.0 °C, I = 0.1 M KCl): 12.21(8) | log βFemHhLl, species (103) ([2]; T = 25.0 °C, I = 0.1 M KCl): 36.95(7) | log βFemHhLl, species (111) ([2]; T = 25.0 °C, I = 0.1 M KCl): 22.90(6) | log βFemHhLl, species (112) ([2]; T = 25.0 °C, I = 0.1 M KCl): 38.37(6) | pM (pFe) = −log[M] [2, 3]: 22.2 | TEM morphology of Aβ42 aggregates, self-induced (Aβ1-42; [Aβ1–42] = 25 μM, no copper): the aggregates became sparser and more elongated | TEM morphology of Aβ42 aggregates in presence of copper (Aβ1-42; [Aβ1–42] = [CuCl2] = 25 μM): formation of homogenous low molecular aggregates
